Assay results published in ChEMBL document CHEMBL3045868, “Synthesis and antibacterial activities of para-alkoxy phenyl--ketoaldehyde derivatives” (Med Chem Res, 2013).
≈ marks a conversion by molar mass, not a printed value.

How the values were obtained:
Assay type in all cases: functional
[1] = tested on: Staphylococcus aureus; test: Bactericidal activity against Staphylococcus aureus clinical isolate 7 after 24 hr; settings: isolate 7, 24 h
[2] = tested on: Staphylococcus aureus; test: Bactericidal activity against Staphylococcus aureus clinical isolate 6 after 24 hr; settings: isolate 6, 24 h
[3] = tested on: Staphylococcus aureus; test: Bactericidal activity against Staphylococcus aureus clinical isolate 4 after 24 hr; settings: isolate 4, 24 h
[4] = tested on: Staphylococcus aureus; test: Bactericidal activity against Staphylococcus aureus clinical isolate 5 after 24 hr; settings: isolate 5, 24 h
[5] = tested on: Staphylococcus aureus; test: Bactericidal activity against Staphylococcus aureus clinical isolate 3 after 24 hr; settings: isolate 3, 24 h
[6] = tested on: Staphylococcus aureus; test: Bactericidal activity against Staphylococcus aureus clinical isolate 2 after 24 hr; settings: isolate 2, 24 h
[7] = tested on: Staphylococcus aureus; test: Bactericidal activity against Staphylococcus aureus clinical isolate 1 after 24 hr; settings: isolate 1, 24 h
[8] = tested on: Staphylococcus aureus; test: Antibacterial activity against Staphylococcus aureus clinical isolate 10 assessed as growth inhibition after 16 to 18 hr by NCCLS agar dilution method
[9] = tested on: Staphylococcus aureus; test: Antibacterial activity against Staphylococcus aureus clinical isolate 9 assessed as growth inhibition after 16 to 18 hr by NCCLS agar dilution method
[10] = tested on: Staphylococcus aureus; test: Antibacterial activity against Staphylococcus aureus clinical isolate 8 assessed as growth inhibition after 16 to 18 hr by NCCLS agar dilution method
[11] = tested on: Staphylococcus aureus; test: Antibacterial activity against Staphylococcus aureus clinical isolate 7 assessed as growth inhibition after 16 to 18 hr by NCCLS agar dilution method
[12] = tested on: Staphylococcus aureus; test: Antibacterial activity against Staphylococcus aureus clinical isolate 6 assessed as growth inhibition after 16 to 18 hr by NCCLS agar dilution method
[13] = tested on: Staphylococcus aureus; test: Antibacterial activity against Staphylococcus aureus clinical isolate 5 assessed as growth inhibition after 16 to 18 hr by NCCLS agar dilution method
[14] = tested on: Staphylococcus aureus; test: Antibacterial activity against Staphylococcus aureus clinical isolate 4 assessed as growth inhibition after 16 to 18 hr by NCCLS agar dilution method
[15] = tested on: Staphylococcus aureus; test: Antibacterial activity against Staphylococcus aureus clinical isolate 3 assessed as growth inhibition after 16 to 18 hr by NCCLS agar dilution method
[16] = tested on: Staphylococcus aureus; test: Antibacterial activity against Staphylococcus aureus clinical isolate 2 assessed as growth inhibition after 16 to 18 hr by NCCLS agar dilution method
[17] = tested on: Staphylococcus aureus; test: Antibacterial activity against Staphylococcus aureus clinical isolate 1 assessed as growth inhibition after 16 to 18 hr by NCCLS agar dilution method
[18] = tested on: Staphylococcus aureus; test: Antibacterial activity against Staphylococcus aureus ATCC 25923 assessed as growth inhibition after 16 to 18 hr by NCCLS agar dilution method
[19] = tested on: Staphylococcus aureus; test: Bactericidal activity against Staphylococcus aureus clinical isolate 9 after 24 hr; settings: isolate 9, 24 h
[20] = tested on: Staphylococcus aureus; test: Bactericidal activity against Staphylococcus aureus clinical isolate 10 after 24 hr; settings: isolate 10, 24 h
[21] = tested on: Staphylococcus aureus; test: Bactericidal activity against Staphylococcus aureus clinical isolate 8 after 24 hr; settings: isolate 8, 24 h
[22] = tested on: Staphylococcus aureus; test: Bactericidal activity against methicillin-resistant Staphylococcus aureus after 24 hr
[23] = tested on: Staphylococcus aureus; test: Bactericidal activity against methicillin-resistant Staphylococcus aureus isolate 5 after 24 hr; settings: isolate 5, 24 h
[24] = tested on: Staphylococcus aureus; test: Bactericidal activity against methicillin-resistant Staphylococcus aureus isolate 4 after 24 hr; settings: isolate 4, 24 h
[25] = tested on: Staphylococcus aureus; test: Bactericidal activity against methicillin-resistant Staphylococcus aureus isolate 3 after 24 hr; settings: isolate 3, 24 h
[26] = tested on: Staphylococcus aureus; test: Bactericidal activity against methicillin-resistant Staphylococcus aureus isolate 1 after 24 hr; settings: isolate 1, 24 h
[27] = tested on: Staphylococcus aureus; test: Bactericidal activity against methicillin-resistant Staphylococcus aureus isolate 2 after 24 hr; settings: isolate 2, 24 h
[28] = tested on: Staphylococcus aureus; test: Antibacterial activity against methicillin-resistant Staphylococcus aureus assessed as growth inhibition after 16 to 18 hr by NCCLS agar dilution method
[29] = tested on: Staphylococcus aureus; test: Antibacterial activity against methicillin-resistant Staphylococcus aureus isolate 5 assessed as growth inhibition after 16 to 18 hr by NCCLS agar dilution method
[30] = tested on: Staphylococcus aureus; test: Antibacterial activity against methicillin-resistant Staphylococcus aureus isolate 4 assessed as growth inhibition after 16 to 18 hr by NCCLS agar dilution method
[31] = tested on: Staphylococcus aureus; test: Antibacterial activity against methicillin-resistant Staphylococcus aureus isolate 3 assessed as growth inhibition after 16 to 18 hr by NCCLS agar dilution method
[32] = tested on: Staphylococcus aureus; test: Antibacterial activity against methicillin-resistant Staphylococcus aureus isolate 2 assessed as growth inhibition after 16 to 18 hr by NCCLS agar dilution method
[33] = tested on: Staphylococcus aureus; test: Antibacterial activity against methicillin-resistant Staphylococcus aureus isolate 1 assessed as growth inhibition after 16 to 18 hr by NCCLS agar dilution method
[34] = tested on: Staphylococcus aureus; test: Bactericidal activity against Staphylococcus aureus clinical isolate after 24 hr
[35] = tested on: Staphylococcus aureus; test: Antibacterial activity against Staphylococcus aureus clinical isolate assessed as growth inhibition after 16 to 18 hr by NCCLS agar dilution method
[36] = tested on: Pseudomonas aeruginosa; test: Antibacterial activity against Pseudomonas aeruginosa ATCC 27853 assessed as growth inhibition after 16 to 18 hr NCCLS agar dilution method
[37] = tested on: Escherichia coli; test: Antibacterial activity against Escherichia coli ATCC 25922 assessed as growth inhibition after 16 to 18 hr NCCLS agar dilution method

Structure (SMILES)	MBC [1]	MBC [2]	MBC [3]	MBC [4]	MBC [5]	MBC [6]	MBC [7]	MIC [8]	MIC [9]	MIC [10]	MIC [11]	MIC [12]	MIC [13]	MIC [14]	MIC [15]	MIC [16]	MIC [17]	MIC [18]	MBC [19]	MBC [20]	other results
CCCCCCCCCC(=O)CC=O [HOUTTUYNIN]	64 µg/mL (≈ 323 µM)	128 µg/mL (≈ 645 µM)	128 µg/mL (≈ 645 µM)	128 µg/mL (≈ 645 µM)	128 µg/mL (≈ 645 µM)	64 µg/mL (≈ 323 µM)	64 µg/mL (≈ 323 µM)	32 µg/mL (≈ 161 µM)	64 µg/mL (≈ 323 µM)	64 µg/mL (≈ 323 µM)	64 µg/mL (≈ 323 µM)	64 µg/mL (≈ 323 µM)	32 µg/mL (≈ 161 µM)	64 µg/mL (≈ 323 µM)	64 µg/mL (≈ 323 µM)	64 µg/mL (≈ 323 µM)	64 µg/mL (≈ 323 µM)	32 µg/mL (≈ 161 µM)	256 µg/mL (≈ 1290 µM)	128 µg/mL (≈ 645 µM)	MBC [21]: 128 µg/mL (≈ 645 µM); MBC50 [22]: 64 µg/mL (≈ 323 µM); MBC90 [22]: 128 µg/mL (≈ 645 µM); MBC [23]: 64 µg/mL (≈ 323 µM); MBC [24]: 32 µg/mL (≈ 161 µM); MBC [25]: 64 µg/mL (≈ 323 µM); MBC [26]: 32 µg/mL (≈ 161 µM); MBC [27]: 128 µg/mL (≈ 645 µM); MIC50 [28]: 16 µg/mL (≈ 80.7 µM); MIC90 [28]: 16 µg/mL (≈ 80.7 µM); MIC [29]: 16 µg/mL (≈ 80.7 µM); MIC [30]: 16 µg/mL (≈ 80.7 µM); MIC [31]: 16 µg/mL (≈ 80.7 µM); MIC [32]: 16 µg/mL (≈ 80.7 µM); MIC [33]: 16 µg/mL (≈ 80.7 µM); MBC50 (60.1); MBC90 (60.2) ([34]; read-out: MIC50): 128 µg/mL (≈ 645 µM); MBC50 (60.1); MBC90 (60.2) ([34]; read-out: MIC90): 128 µg/mL (≈ 645 µM); MIC50 [35]: 64 µg/mL (≈ 323 µM); MIC90 [35]: 64 µg/mL (≈ 323 µM)
C[C@H]1COc2c(N3CCN(C)CC3)c(F)cc3c(=O)c(C(=O)O)cn1c23.C[C@H]1COc2c(N3CCN(C)CC3)c(F)cc3c(=O)c(C(=O)O)cn1c23.O [LEVOFLOXACIN]	0.25 µg/mL	0.5 µg/mL	0.5 µg/mL	0.25 µg/mL	0.5 µg/mL	0.5 µg/mL	0.25 µg/mL	0.5 µg/mL	0.25 µg/mL	0.25 µg/mL	0.25 µg/mL	0.5 µg/mL	0.125 µg/mL	0.25 µg/mL	0.25 µg/mL	0.5 µg/mL	0.25 µg/mL	0.25 µg/mL	0.5 µg/mL	0.5 µg/mL	MIC [36]: 0.5 µg/mL; MIC [37]: 0.025 µg/mL; MBC [21]: 0.25 µg/mL; MBC50 [22]: >16 µg/mL; MBC90 [22]: >16 µg/mL; MBC [23]: > 16 µg/mL; MBC [24]: > 16 µg/mL; MBC [25]: > 16 µg/mL; MBC [26]: > 16 µg/mL; MBC [27]: > 16 µg/mL; MIC50 [28]: 16 µg/mL; MIC90 [28]: > 16 µg/mL; MIC [29]: > 16 µg/mL; MIC [30]: 16 µg/mL; MIC [31]: 16 µg/mL; MIC [32]: 8 µg/mL; MIC [33]: 8 µg/mL; MIC50 [35]: 0.25 µg/mL; MIC90 [35]: 0.5 µg/mL
